Experimental data taken from US8791126B2, “2-alkynyl-N9-propargyladenine and medicinal use thereof” (Yamasa Corporation, priority 2010, dated 2014).

Assays:
[1] = biological target: T1, adenosine A2a receptor (Rattus norvegicus, UniProt P30543); experiment: Adenosine A2a receptor antagonist activity by the Magnus method (excised femoral vein); format: cell-based; conditions: femoral vein of male Wistar rats, contracted with 10^−5 M serotonin, relaxed with 10^−7 M 2-octynyladenosine; FIG. 1
T1 construct: the femoral vein was excised from male Wistar rats; from tissue; host or cells: femoral vein of male Wistar rats
Method: In order to clarify the adenosine A2a receptor antagonist activity of the compound of the present invention, an evaluation by the Magnus method was conducted. The Magnus method is a method of evaluating the action of drugs using muscle contraction/relaxation as an index, and is used generally as a method for determining the antagonist activity.
In the evaluation, firstly, the femoral vein was excised from male Wistar rats. A Krebs-Henseleit solution aerated with O2 gas was filled in an organ bath and kept at 37° C., and the excised femoral vein was suspended therein under 0.5 g of resting tension. The contractile and relaxing response was determined via a pickup transducer.
In order to check the reactivity of the compound, firstly, the test compound was added dropwise in the organ bath. 10 minutes after the dropwise addition, serotonin was added dropwise in the organ bath such that the concentration thereof was 10^−5 M, to make the femoral vein contract. In a state where the contractile response was stable, 10^−7 M of an adenosine A2a receptor agonist, 2-octynyladenosine was administered to induce the relaxing response, and the inhibitory effect of the compound of the present invention and a positive control on the relaxing response was evaluated. Note that, in the representation of the results, the degree of the contraction at the time of addition of each substance was calculated, on condition that the degree of the relaxation when the compound of the present invention and the positive control were not added dropwise at all was designated as a control for the whole, and the degree of the relaxation for the control for the whole was set to be 100%.
As a compound of the present invention, the formula (3) compound, the formula (4) compound, the formula (5) compound, the formula (9) compound, and the formula (10) compound, which were described in the synthesis examples, were used. Note that the formula (9) compound is a publicly-known compound which has already been described in Patent Literature 2. In addition, as a positive control, 8-[(E)-2-(3,4-dimethoxyphenyl)vinyl]-1,3-diethyl-7-methyl-3,7-dihydro-1H-purin-2,6-dione (KW-6002) described in Patent Literature 1, which is an adenosine A2a receptor antagonist which has conventionally been deemed to have an effect on the treatment of Parkinson's syndrome, and the compound of the following formula (hereinafter referred to as “AT-compound”), which is shown in Patent Literature 3, compound No. 9 in [Table A], were used.

[2] = tested on: haloperidol-induced catalepsy; experiment: Haloperidol-induced catalepsy; format: in vivo; conditions: male ddY mice, haloperidol 1 mg/kg i.p., compound oral 0.03-10 mg/kg 1 hour later, scored 1, 3, 5, 7 hours; FIGS. 2-4
Method: Haloperidol is known to block dopamine receptors. This method is used generally as a method of evaluating the therapeutic effect of the therapeutic agents for Parkinson's syndrome, by using the effect of inducing catalepsy (when being made to take a certain posture or position of the limbs extrinsically, continuing to keep the posture as it is without willing to change it by oneself) caused by administration of haloperidol. The experiment was conducted by using 7 male ddY mice, 5-weeks old, per group. Haloperidol was suspended in 0.5% CMC, and then administered intraperitoneally to the mice at 1 mg/kg. In the study, as a test compound, the compounds each represented by the formula (4), the formula (5), the formula (10), the formula (11), the formula (12), the formula (13), or the formula (14) in the above synthesis examples were used, and as a positive control, KW-6002 (the test compound and KW-6002 were 0.03, 0.1, 0.3, 1, 3, 10 mg/kg) or L-DOPA (100 mg/kg)+benserazide (25 mg/kg) was used. The above 4 compounds were each suspended in 0.5% CMC, and orally administered to the mice 1 hour after the haloperidol administration. In addition, the case where only CMC was administered was designated as a control for the whole. After a lapse of 1, 3, 5, and 7 hours from the administration of the test compound, both forelimbs only, or both hindlimbs only, of a mouse were put in turn on an acrylic stand, height 4.5 cm, width 1.0 cm, and catalepsy was determined, and the state was scored as Table 2 below. [table]

[3] = tested on: 6-OHDA-induced unilaterally substantia nigra lesioned rats; experiment: 6-OHDA-induced unilaterally substantia nigra lesioned rats, contralateral rotation; format: in vivo, rat; conditions: oral, administered singly, observed 5 hours, versus KW-6002; FIGS. 5-7
Method: 6-Hydroxydopamine (6-OHDA) is taken into neurons by dopamine reuptake transporters and acts as a neurotoxin, and is used for the selective denaturation and removal of dopaminergic neurons. This 6-OHDA was locally administered to the corpus striatum to induce the cell death of dopaminergic nerve and reduce dopamine, and thereby induce the symptoms of Parkinson's syndrome. In the study, 6-OHDA was injected into the right ventral tegmental area of male SD rats, 8-weeks old, and after 4 weeks, apomorphine (5 mg/kg, s.c.) was administered, and the animals which had shown a certain count of the counterclockwise rotation were selected. Using the model rats, the evaluation of the test compound as a therapeutic agent for Parkinson's syndrome was commenced.
Male SD rats, 8-weeks old, were anesthetized with pentobarbital (50 mg/kg), and the hairs were removed broadly from the occiput through the back of the neck, and then an ear bar was attached thereto, and the rats were fixed in a brain stereotaxic apparatus. The skin of the head was incised 3 to 4 cm with a scalpel, the periosteum was stripped off to expose the skull and the suture was checked. […] 4 weeks after the 6-OHDA administration, apomorphine (5 mg/kg, s.c.) was administered, and the count of the counterclockwise rotation for 5 minutes was counted from 5 minutes after the administration. […]

[4] = Photostability study in solid state; format: physicochemical; conditions: under a fluorescent light for 3 weeks, HPLC
Method: Of the compounds of the present invention, the formula (4) compound, the formula (10) compound, and the formula (11) compound were evaluated for their photostability in solid state.
The study was conducted in accordance with “Guideline for the Photostability Testing of New Drug Substances and Products.” That is, each compound in solid state was placed under a fluorescent light statically for 3 weeks, and the residual ratio was calculated from the HPLC analysis results before and after the placement.

[5] = biological target: human adenosine A2a receptor (Homo sapiens, UniProt P29274); experiment: Binding assay to human adenosine A2a receptor
Chain of human adenosine A2a receptor (P29274 whole entry): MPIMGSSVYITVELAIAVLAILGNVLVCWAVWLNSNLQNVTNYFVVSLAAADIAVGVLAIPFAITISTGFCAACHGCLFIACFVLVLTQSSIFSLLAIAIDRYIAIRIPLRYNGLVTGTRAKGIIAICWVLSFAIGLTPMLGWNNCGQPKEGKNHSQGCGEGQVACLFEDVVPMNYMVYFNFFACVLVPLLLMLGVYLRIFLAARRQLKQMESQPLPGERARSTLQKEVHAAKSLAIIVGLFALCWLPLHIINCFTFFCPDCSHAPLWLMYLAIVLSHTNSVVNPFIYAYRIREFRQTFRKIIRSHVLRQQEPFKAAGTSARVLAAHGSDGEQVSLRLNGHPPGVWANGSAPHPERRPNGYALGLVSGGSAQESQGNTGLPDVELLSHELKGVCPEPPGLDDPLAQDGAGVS
Method: In order to clarify the binding affinity of the compound of the present invention to a human adenosine A2a receptor, a binding assay for the human receptor and the compound of the present invention was conducted.

T1 sequence (P30543 whole entry): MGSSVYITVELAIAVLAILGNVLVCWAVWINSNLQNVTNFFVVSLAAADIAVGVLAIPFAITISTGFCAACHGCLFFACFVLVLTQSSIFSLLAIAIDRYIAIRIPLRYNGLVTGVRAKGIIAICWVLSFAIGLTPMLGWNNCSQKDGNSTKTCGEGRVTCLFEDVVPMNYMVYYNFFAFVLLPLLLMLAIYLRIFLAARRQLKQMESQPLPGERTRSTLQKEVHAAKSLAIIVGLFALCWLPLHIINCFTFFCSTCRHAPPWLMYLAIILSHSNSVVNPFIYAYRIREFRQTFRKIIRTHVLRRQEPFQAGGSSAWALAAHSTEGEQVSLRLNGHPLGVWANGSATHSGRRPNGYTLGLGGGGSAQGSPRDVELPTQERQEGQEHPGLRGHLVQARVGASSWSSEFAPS

Compound | inhibition of the relaxing response of the femoral vein (adenosine A2a receptor antagonist activity) [1] | score of catalepsy (improving effect on haloperidol-induced catalepsy) [2] | count of the contralateral rotation [3] | residual ratio [4] [%] | Ki [5] [nM]
C#CCn1c(Br)nc2c(N)nc(C#CCCCCCC)nc21 [formula (4) compound, 8-bromo-2-(1-octyn-1-yl)-N^9-propargyladenine] | more potent activity | kept the score of catalepsy low, with a smaller dose than that of KW-6002 | exhibit an effect which is stronger and continuously increase the count of the contralateral rotation | 99.0 | 0.581
C#CCn1c(Cl)nc2c(N)nc(C#CC3(O)CCCCC3)nc21 [formula (13) compound, 8-chloro-2-[2-(1-hydroxycyclohexyl)-1-ethyn-1-yl]-N^9-propargyladenine] | – | exhibit an effect for a long time, with a smaller dose than that of the positive control KW-6002 | – | – | –
C#CCn1c(-c2ccco2)nc2c(N)nc(C#CCCCCCC)nc21 [formula (5) compound, 8-(2-furyl)-2-(1-octyn-1-yl)-N^9-propargyl-adenine] | more potent activity | the catalepsy score was also kept low compared with that of L-DOPA or the formula (4) compound | – | – | –
C#CCn1c(-n2nccn2)nc2c(N)nc(C#CCCCCCC)nc21 [formula (14) compound, 8-(1,2,3-triazol-2-yl)-2-(1-octynyl)-N^9-propargyladenine] | – | exhibit an effect for a long time, with a smaller dose than that of the positive control KW-6002 | – | – | –
C#CCn1cnc2c(N)nc(C#CCC3CCN(C(=O)Oc4ccc(C(=O)OC)cc4)CC3)nc21 [AT-compound, reference compound] | no potent activity | – | – | – | –
C#CCn1c(Cl)nc2c(N)nc(C#CCCCCCC)nc21 [formula (12) compound, 8-chloro-2-(1-octynyl)-N^9-propargyladenine] | – | exhibit an effect for a long time, with a smaller dose than that of the positive control KW-6002 | – | – | –
C#CCn1c(-c2ccco2)nc2c(N)nc(C#CC3(O)CCCCC3)nc21 [formula (11) compound, 8-(2-furyl)-2-[2-(1-hydroxycyclohexyl)-1-ethyn-1-yl]-N^9-propargyladenine] | – | exhibit an effect for a long time, with a smaller dose than that of the positive control KW-6002 | – | 100.2 | –
C#CCn1c(Br)nc2c(N)nc(C#CC3(O)CCCCC3)nc21 [formula (10) compound, 8-bromo-2-[2-(1-hydroxycyclohexyl)-1-ethyn-1-yl]-N^9-propargyladenine] | more potent activity | kept the score of catalepsy low, with a smaller dose than that of KW-6002 | exhibit an effect which is stronger and continuously increase the count of the contralateral rotation | 98.8 | –
